Results: patent US20070009437A1, “Intracellular trapping of radionuclides by enzyme-mediated reduction” (priority 2003, published 2007)

Assays:
[1] = test system: DsbC-HydB fusion (pETDuet/DsbC-HydB alone) in E. coli BL21(DE3) Star; test: Tc99m O4- reduction assay, bacteria with pETDuet/DsbC-HydB alone; format: cell-based, Desulfovibrio desulfuricans; settings: for Counts Per Minute, cell pellet, FB: 15 mCi, aerobic
From the text: (§1) Bacterial expression vectors were designed following standard molecular biology techniques. D. desulfuricans hydrogenase genes, Hyd A and Hyd B were PCR amplified using primers incorporated with unique restriction sites at the ends. The genes were inserted into pET-Duet1 (Novagen) vector under T7 RNA polymerase driven promoter through sequential restriction digestion and ligation. Periplasmic signal sequences were extracted from vectors pET-39b and pET-40b (Novagen) and ligated in-frame with start codon deficient Hydrogenase genes. Mammalian expression vectors were designed with mitochondrial signal sequences from pCMV/myc/mito, fused in frame by PCR amplification and ligation with both HydA and HydB genes. Additionally, the myc epitope was added in-frame at the C-terminus to facilitate subcellular localization and immunoprecipations.
(§2) E. coli BL21(DE3) Star (Invitrogen) was transformed with various constructs and grown on the appropriate selective media agars. In case of periplasmic fusion hydrogenases, dual co-transformation was accomplished using antibiotic selection markers, ampicillin and chloramphenicol. Transformed cells were grown at 37° C. in a standard laboratory shaker under aerobic conditions to an optical density at 600 nm (O.D.600) of 0.6 and then induced with 1 mM IPTG under a standard T7 promoter induction protocol. One ml aliquots of cells were collected at 0, 1, 2, and 3 hour time points following induction and mRNA was extracted using a bacterial mRNA extraction mini kit (Qiagen). 100 ng of the mRNA samples was DNAse treated (Invitrogen) according to the manufacturer's protocol. RNA quality was then analyzed using an Agilent 2100 Bioanalyzer, prokaryotic total RNA nano-chip. RT-PCR reactions were performed using the internal specific primers for HydA, Forward: 5′-[…] (SEQ ID NO:8); Reverse: 5′-[…] (SEQ ID NO:9) and Hyd B, Forward: 5′-[…] (SEQ ID NO:10), Reverse 5′-[…] (SEQ ID NO:11) and one step RT-PCR kit (Qiagen).
(§3) Tc99m O4—reduction assays were performed as follows: Bacterial cultures were grown to an O.D.600 of 0.6 in a simple rotary shaker under aerobic conditions. HydA and HydB genes were induced with 1 mM IPTG in the presence of 15 mCi of 99mTc Pertechnetate and ten ml aliquots of bacterial cultures were collected at 0, 1, 2, and 3 hr time points. The cells were spun down at 3500 rpm for 15 min, washed twice with 5 ml phosphate buffered saline (PBS) and the supernatant was collected and saved for later analysis. Control bacteria transformed with Duet vectors only were treated as controls. Total counts in the total cell pellet, 100 μl of media supernatant, and 1 ml of each wash, were then assayed using a gamma counter. Ten microliters of 99mTc pertechnetate was assayed to provide internal control between experiments.
(§4) In FIG. 12, the amount of radioactivity recorded in counts per minute was divided by the total number of counts expected per 10 ml of culture. The experimental values were determined by subtracting the control bacterial normalized CPM from the normalized CPM from the hydrogenase vector(s) transformed bacteria. The values obtained were therefore normalized counts per minute for the different cell lines.
(§5) However, this increase was negligible when compared to cells containing both HydA and HydB in separate (individual) Dsb fusion vector constructs.

[2] = test system: DsbA-HydA + DsbC-HydB (pACYC-DsbA-HydA + pETDuet/DsbC-HydB) in E. coli BL21(DE3) Star; test: Tc99m O4- reduction assay, bacteria with both periplasmic Dsb fusion vectors; format: cell-based, Desulfovibrio desulfuricans; settings: for Counts Per Minute, cell pellet, DSB FUSIONS: 15 mCi, aerobic
From the text: as §1, §2, §3, §4, §5

[3] = test system: T. vaginalis (ATCC No. 30001); test: Trapping of Tc99m pertechnetate in Trichomonas vaginalis (intracellular radioactivity, gamma counter); format: cell-based; settings: 2 μCi, 37° C., 2×10^6 cells per tube, washed pellet
Description: T. vaginalis (ATCC No. 30001) was cultured in ATCC LYI entamoeba medium (ATCC No. PRA-2154) at 37° C. in test tubes to a titer of 2×10^6 cells per tube. Three test tubes were included in each group. T. vaginalis cells were incubated at 37° C. for a period of time after inoculation of 2 μci of Technetium 99m pertechnetate in each test tube. At end of incubation, the cells were harvested by centrifugation at […], for 10 minutes. The cellular pellet was washed three times with PBS to remove extra-cellular radioactivity. Intracellular radioactivity of the cells was counted with a gamma counter.

[4] = test system: E. coli BL21(DE3) Star transformed with pET-Duet + pACYCDuet (control); test: Tc99m O4- reduction assay, control bacteria with Duet vectors only; format: cell-based, Escherichia coli; settings: 15 mCi, aerobic
Description: as §2, §3, §4

[5] = test system: DsbA-HydA fusion (pACYC-DsbA-HydA alone) in E. coli BL21(DE3) Star; test: Tc99m O4- reduction assay, bacteria with pACYC-DsbA-HydA alone; format: cell-based, Desulfovibrio desulfuricans; settings: 15 mCi, aerobic
From the text: as §1, §2
Tc99m O4—reduction assays were performed as follows: Bacterial cultures were grown to an O.D.600 of 0.6 in a simple rotary shaker under aerobic conditions. HydA and HydB genes were induced with 1 mM IPTG in the presence of 15 mCi of 99mTc Pertechnetate and ten ml aliquots of bacterial cultures were collected at 0, 1, 2, and 3 hr time points. The cells were spun down at 3500 rpm for 15 min, washed twice with 5 ml phosphate buffered saline (PBS) and the supernatant was collected and saved for later analysis. […]
as §4, with “The values obtained were therefore normalized counts per minute for the different cell lines.” left out

[6] = test system: D. desulfuricans hydrogenase HydA/HydB (pETDuet/HydA/HydB) in E. coli BL21(DE3) Star; test: Tc99m O4- reduction assay, bacteria with pETDuet/HydA/HydB; format: cell-based, Desulfovibrio desulfuricans; settings: for Counts Per Minute, cell pellet, HYDA/B: 15 mCi, aerobic
From the text: as §1, §2, §3, §4

SMILES: [O]=[99Tc](=[O])(=[O])[O-] [Technetium 99m pertechnetate]
- Counts Per Minute, cell pellet, FB ([1]; 0 hr after 1 mM IPTG induction): 4643 cpm
- Counts Per Minute, cell pellet, FB ([1]; 1 hr after 1 mM IPTG induction): 40064 cpm
- Counts Per Minute, cell pellet, FB ([1]; 2 hr after 1 mM IPTG induction): 55201 cpm
- Counts Per Minute, cell pellet, FB ([1]; 3 hr after 1 mM IPTG induction): 77462 cpm
- entrapment of radionuclide by cells ([1]; Hyd B-Dsb fusion alone vs both fusion hydrogenase products together): higher than that of both fusion hydrogenase products together
- Counts Per Minute, cell pellet, DSB FUSIONS ([2]; 0 hr after 1 mM IPTG induction): 4185 cpm
- Counts Per Minute, cell pellet, DSB FUSIONS ([2]; 1 hr after 1 mM IPTG induction): 38129 cpm
- Counts Per Minute, cell pellet, DSB FUSIONS ([2]; 2 hr after 1 mM IPTG induction): 80021 cpm
- Counts Per Minute, cell pellet, DSB FUSIONS ([2]; 3 hr after 1 mM IPTG induction): 56611 cpm
- 99mTc association with the bacteria ([2]; DsbA and DsbC ligated in fusion to Hyd A and Hyd B): increased 99mTc association with the bacteria
- RADIOACTIVITY (dpm) in T. vaginalis ([3]; incubation 30 minutes): 24904 dpm
- RADIOACTIVITY (dpm) in T. vaginalis ([3]; incubation 45 minutes): 45127 dpm
- RADIOACTIVITY (dpm) in T. vaginalis ([3]; incubation 12 hours): 1915843 dpm
- Counts Per Minute, cell pellet, D + P (control) ([4]; 0 hr after 1 mM IPTG induction): 2777 cpm
- Counts Per Minute, cell pellet, D + P (control) ([4]; 1 hr after 1 mM IPTG induction): 6939 cpm
- Counts Per Minute, cell pellet, D + P (control) ([4]; 2 hr after 1 mM IPTG induction): 10045 cpm
- Counts Per Minute, cell pellet, D + P (control) ([4]; 3 hr after 1 mM IPTG induction): 11944 cpm
- Counts Per Minute, cell pellet, FA ([5]; 0 hr after 1 mM IPTG induction): 7074 cpm
- Counts Per Minute, cell pellet, FA ([5]; 1 hr after 1 mM IPTG induction): 8503 cpm
- Counts Per Minute, cell pellet, FA ([5]; 2 hr after 1 mM IPTG induction): 15323 cpm
- Counts Per Minute, cell pellet, FA ([5]; 3 hr after 1 mM IPTG induction): 23935 cpm
- Counts Per Minute, cell pellet, HYDA/B ([6]; 0 hr after 1 mM IPTG induction): 2074 cpm
- Counts Per Minute, cell pellet, HYDA/B ([6]; 1 hr after 1 mM IPTG induction): 5543 cpm
- Counts Per Minute, cell pellet, HYDA/B ([6]; 2 hr after 1 mM IPTG induction): 8031 cpm
- Counts Per Minute, cell pellet, HYDA/B ([6]; 3 hr after 1 mM IPTG induction): 12339 cpm
- trapping in vitro as compared to control cells ([6]; bacteria overexpressing HydA and HydB genes): significantly higher trapping
- radioactivity within cells relative to control cells ([6]; pETDuet1/HydA/HydB vector vs pET-Duet+PAcYCDuet vector): noticeable increase in radioactivity
